# Test results: patent publication US12133842B2, “Stable preservative-free mydriatic and anti-inflammatory solutions for injection” (RAYNE INTRAOCULAR LENSES LIMITED, priority 2012, dated 2024)
# Entries after “also recorded” stand apart in the source; their conditions may differ. Counter-ions that a name gives are not always drawn.
# Legend:
# [1] = system: African green monkey model of human phacoemulsification surgery; assay: Concentration-ranging study of phenylephrine and ketorolac, intraoperative irrigation, phacoemulsification surgical model, Example 6; type: in vivo
# Protocol: (§1) In each case an aliquot of the formulation was injected into a balanced salt solution (BSS, Baxter Healthcare, produce code 1A7233) as the irrigation vehicle carrier to a particular final dosing concentration as described below. The studies also utilized Proparacaine HCl (0.5%, Bausch & Lomb), Tropicamide (1.0%, Bausch & Lomb) and Ciprofloxacin HCl (3%, Alcon) to the extent described below.
# (§2) The mydriatic and anti-inflammatory properties of the test agents were evaluated in an African green monkey model of human phacoemulsification surgery. Prior to surgery, baseline measures and assessments were performed on both eyes in each monkey to determine pupil diameter, lens and iris integrity, corneal thickness, and anterior chamber flare and cell count by qualitative scoring under biomicroscopy and quantitative flare photometry using a Kowa FM-500 instrument. A phacoemulsification surgery with lens replacement with a polymethyl methacrylate (PMMA) artificial lens was performed using a Storz Premier anterior phacoemulsification machine. The procedure was only performed on the right eye to minimize surgery position variability, allow the left to serve as control, and to minimize the consequence of any possible vision loss induced.
# Test animals were placed in a prone position under ketamine/xylazine anesthesia augmented with one drop of topical proparacaine. A small incision was made in the cornea of the right eye with a MVR 20 G lance blade, through which 0.4-0.6 mL of viscoelastic (2% hydroxypropyl methylcellulose, EyeCoat, Eyekon Medical) was introduced into the anterior chamber via a viscoelastic injector. A corneal incision was made 1.0 mm anterior to the limbus using a 2.65 mm straight clear cornea bi-beveled blade. Irrigation was applied with the phacoemulsification hand piece to remove viscoelastic and introduce the test perfusate. After irrigation for a total of four minutes, irrigation was stopped and the anterior chamber refilled with viscoelastic. A capsulorhexis was performed and the phacoemulsification tip reintroduced into the anterior chamber with the application of phacoemulsification energy to disrupt the lens and allow aspiration and lens fragment removal. Irrigation was extended for a period after lens removal to standardize intraocular perfusate delivery across all treatment groups (a total of 14 minutes during this phacoemulsification segment of the irrigation). Following the phacoemulsification and irrigation procedure, a PMMA intraocular lens (IOL) was inserted and an additional two minutes of irrigation perfumed, after which the corneal incision was closed with two 12.0 nylon sutures. Irrigation with a test fluid or vehicle control, as described below, was performed for a total of 20 minutes at a flow rate of 20 mL/min, prior to, during and after phacoemulsification and lens replacement.
# (§3) In these studies, laser flare photometry was performed at baseline, 4.5, 24, 48 hours and 1 week after the initiation of the surgical procedure using a Kowa FM-500 (Kowa Company, Tokyo Japan). The Kowa FM-500 measures laser light scattering to quantify anterior chamber flare. A laser is directed into the anterior chamber and protein molecules, released into the anterior chamber during an inflammatory response, pass through the focal point scattering laser light. This light scattering is quantified by a photomultiplier tube as photon counts per millisecond. At each observation point, measurements were collected until seven acceptable readings (difference between two background measurements <15%) were obtained and the lowest and highest readings were deleted and the mean value+/−the standard deviation calculated, as specified by the manufacturer.
# The time course of the mydriatic effect was documented through video recording of the pupil during the perfusion procedure. Pupil diameter and the fixed width of the lid speculum (11 mm) were measured from the screen image to allow calculation of the pupil diameter in millimeters.
# [2] = system: African green monkey model of human phacoemulsification surgery; assay: Phenylephrine and ketorolac combination (90 μM PE, 30 μM KE) irrigation in phacoemulsification surgical model, Example 7; type: in vivo
# Protocol: as §1
# as §2, with “The procedure was only performed on the right eye to minimize surgery position variability, allow the left to serve as control, and to minimize the consequence of any possible vision loss induced.” left out
# as §3, with “A laser is directed into the anterior chamber and protein molecules, released into the anterior chamber during an inflammatory response, pass through the focal point scattering laser light.” left out
# The time course of the mydriatic effect was documented through video recording of the pupil during the perfusion procedure. Pupil diameter and the fixed width of the lid speculum (11 mm) were measured from the screen image to allow calculation of the pupil diameter in millimeters. […]
# [3] = system: African green monkeys undergoing phacoemulsification surgery with lens replacement; assay: GLP toxicology (safety) study of PE-KE irrigation in phacoemulsification surgery, Example 9; type: in vivo, African green monkey; conditions: tropicamide control group; thirty seconds after intracameral 150 μl BSS alone
# Protocol: as §1
# The mydriatic and anti-inflammatory properties of the test agents were evaluated in an African green monkey model of human phacoemulsification surgery. Prior to surgery, baseline measures and assessments were performed on both eyes in each monkey to determine pupil diameter, lens and iris integrity, corneal thickness, and anterior chamber flare and cell count by qualitative scoring under biomicroscopy and quantitative flare photometry using a Kowa FM-500 instrument. […]
# A nonclinical GLP toxicology study was carried out in African green monkeys. […] Three concentrations were evaluated: 720 μM PE and 90 μM KE (720:90 μM) in the low concentration group, 2160 μM PE and 270 μM KE (2160:270 μM) in the mid concentration group, and 7200 μM PE and 900 μM KE (7200:900 μM) in the high concentration group.
# A separate control group was evaluated as well. […]
# [4] = system: subjects undergoing unilateral cataract extraction with lens replacement (CELR); assay: Phase 2b human clinical study, irrigation during cataract extraction with lens replacement (CELR), Example 10; type: in vivo; conditions: for Subjects Having Pupil Diameter <6 mm during CELR (number of subjects) / Subjects Having Pupil Diameter <6 mm during CELR (percent): intent-to-treat, n = 49 combination, 52 KE, 49 PE
# Protocol: A Phase 2b human clinical study evaluated a ketorolac and phenylephrine combination drug composition, formulated in accordance with Formula 1 of the present invention-, for its effect on the maintenance of intra-operative mydriasis (pupil dilation) and reduction of postoperative pain and irritation resulting from cataract and other lens replacement surgery. The combination drug composition was diluted into a balanced salt solution irrigation carrier prior to intraocular administration during intraocular surgical procedures.
# The subject Phase 2b study was a randomized, parallel group, vehicle-controlled, factorial design study, and was run to compare phenylephrine (PE), ketorolac (KE) and the combination drug composition containing both PE and KE in subjects undergoing unilateral cataract extraction with lens replacement (CELR) using a coaxial phacoemulsification process with insertion of an acrylic lens. Administration of test irrigation solutions occurred in a double-masked fashion. The study evaluated, in a four-arm full-factorial design, the contribution of the two active pharmaceutical ingredients (PE and KE, alone and in combination) to the maintenance of mydriasis and post-operative reduction in pain when administered diluted in balanced salt solution (BSS). The study also explored the effect of the combination drug composition, PE, and KE on postoperative inflammation. Subjects were randomized to one of the following four treatment arms in a 1:1:1:1 fashion: • a. BSS vehicle • b. 483 μM PE in BSS • c. 89 μM KE in BSS • d. the combination drug composition containing 483 μM PE and 89 μM KE in BSS.
# All subjects in this study received preoperative mydriatics and anesthetics. In each of the four groups, the respective irrigation treatment was administered as a single irrigation of the anterior chamber of the eye during the CELR surgical procedure, with a mean of 8 minutes of exposure in this study. In addition, at the end of the procedure, the anterior chamber was filled with the irrigation treatment. The change in pupil diameter over time from surgical baseline (immediately prior to surgical incision) to the end of the surgical procedure (wound closure) was measured, as was postoperative pain on the day of operation as measured by the Visual Analog Scale (VAS) at 2, 4 6, 8 and 10-12 hours and at other times recorded by the patient prior to taking rescue pain medication.
# [5] = cited from earlier work
compound,measurement,setting,value
tropicamide,maximal pupil dilation relative to phenylephrine groups,[1]; two drops 1% topical 20 minutes before BSS irrigation,"lower maximal dilation than exhibited by the mid, high and highest concentration phenylephrine groups"
same,mean pupil diameter,"[2]; control arm of previous efficacy studies, preoperative topical 1% tropicamide",5.9 mm
same,time at which pupil diameter plateaued,"[2]; monkey, in vivo",approximately 2.5 minutes
same,maximal dilation relative to PE-KE group,[2]; topical tropicamide 20 minutes before BSS irrigation,lower maximal dilation than exhibited by the PE-KE treatment group
same,pupil diameter,[3],5.18±0.18 mm
"O=C(c1ccccc1)c1ccc2n1CCC2C(=O)O (racemic) [ketorolac, (+/−)-5-Benzoyl-2,3-dihydro-1H-pyrrolizine-1-carboxylic acid:2-amino-2(hydroxymethyl)-1,3-propanediol (1:1)]",flare measurements versus control at 24 and 48 hours,"[1]; high and mid dose ketorolac, not statistically significant",remained lower relative to the control group
same,mydriasis relative to BSS alone,"[1]; ketorolac 3-30 μM in BSS, initial two minutes before phenylephrine",No statistical differences; also recorded: did not result in a change in mydriasis substantially different from that observed with BSS alone
same,flare measures / anterior chamber inflammation versus BSS control at 4.5 hours,"[1]; mid (10 μM) and high (30 μM) ketorolac groups combined, F=5.17, P<0.0223",statistically significant difference; also recorded: positive effect of ketorolac on anterior chamber inflammation
same,anti-miotic effect,[4]; 89 μM KE with 483 μM PE,provided an anti-miotic effect on top of the effect of phenylephrine
same,subjects with extreme constriction (pupil reduction of 2.5 mm or more),[4]; 483 μM PE and/or 89 μM KE in BSS,21%
same,Subjects Having Pupil Diameter <6 mm during CELR (number of subjects),[4],18
same,Subjects Having Pupil Diameter <6 mm during CELR (percent),[4],35%
same,solubility of three crystal forms,[5]; water,equally soluble in water
"CNC[C@H](O)c1cccc(O)c1 [phenylephrine, (−)-m-Hydroxy-a-[(methylamino)methyl]benzyl alcohol hydrochloride]",pupil dilation after adding phenylephrine to ketorolac or BSS perfusate,[1]; 30 μM phenylephrine added at two minutes,rapid dilation occurred
same,"maximal mydriasis attained, dependence on concentration","[1]; 3, 10, 30, 90 μM",concentration-dependent
same,flare measures relative to tropicamide control,"[1]; all time points, Student Newman-Keuls, hydrochloride",no treatment effect on flare measures; also recorded: no significant difference between treatment groups
same,mean dilation (pupil diameter) at later time points,"[1]; high phenylephrine group (30 μM), approaches anatomic limit",~8.3 mm
same,concentration resulting in mydriasis exceeding preoperative topical 1% tropicamide,[1]; in BSS perfusate,≥ 10 µM
same,mydriasis onset and maintenance (video pupil data),[1]; phenylephrine 3-90 μM in BSS anterior chamber perfusate,rapid onset mydriasis which was maintained throughout the surgical procedure
same,"flare photometry and pachymetry measures (anterior chamber inflammation, corneal edema)",[1]; phenylephrine added to perfusate,did not indicate a reduction in anterior chamber inflammation or corneal edema
same,Subjects Having Pupil Diameter <6 mm during CELR (number of subjects),[4],11
same,Subjects Having Pupil Diameter <6 mm during CELR (percent),[4],22%
same,solubility,[5]; water and alcohol,freely soluble in water and alcohol
